Measurements as given in paper PMC10728955 (RSC Advances, 2023).

Columns and labels:
[1] = test system: MCF-7 cells; experiment: cells; settings: Homo sapiens, MCF7, read-out: In vitro cytotoxicity IC50, MCF-7
[2] = test system: HepG2 cells; experiment: cells; settings: Homo sapiens, HepG2, read-out: In vitro cytotoxicity IC50, HepG2
[3] = biological target: Human VEGFR-2 (Homo sapiens, UniProt P35968); experiment: In vitro VEGFR-2 inhibition, VEGFR-2 ELISA kit; type: biochemical
[4] = test system: MCF-7 cells; experiment: Cell cycle analysis by flow cytometry; type: cell-based; settings: 0.041 μM, 72 h
[5] = test system: MCF-7 cells; experiment: Apoptosis assay, annexin V-FITC/PI; type: cell-based; settings: 0.04 μM, 72 h
[6] = test system: Bcl-2; type: cell-based; settings: MCF-7, 0.04 μM
[7] = test system: MCF-7 cells; experiment: Cell migration and scratch wound healing assay; type: cell-based
[8] = test system: normal human lung cells (WI-38); settings: WI-38 versus HepG2
[9] = test system: normal human lung cells (WI-38); experiment: cells; settings: WI-38, read-out: WI-38 IC50

Chain of Human VEGFR-2 (P35968 20-1356): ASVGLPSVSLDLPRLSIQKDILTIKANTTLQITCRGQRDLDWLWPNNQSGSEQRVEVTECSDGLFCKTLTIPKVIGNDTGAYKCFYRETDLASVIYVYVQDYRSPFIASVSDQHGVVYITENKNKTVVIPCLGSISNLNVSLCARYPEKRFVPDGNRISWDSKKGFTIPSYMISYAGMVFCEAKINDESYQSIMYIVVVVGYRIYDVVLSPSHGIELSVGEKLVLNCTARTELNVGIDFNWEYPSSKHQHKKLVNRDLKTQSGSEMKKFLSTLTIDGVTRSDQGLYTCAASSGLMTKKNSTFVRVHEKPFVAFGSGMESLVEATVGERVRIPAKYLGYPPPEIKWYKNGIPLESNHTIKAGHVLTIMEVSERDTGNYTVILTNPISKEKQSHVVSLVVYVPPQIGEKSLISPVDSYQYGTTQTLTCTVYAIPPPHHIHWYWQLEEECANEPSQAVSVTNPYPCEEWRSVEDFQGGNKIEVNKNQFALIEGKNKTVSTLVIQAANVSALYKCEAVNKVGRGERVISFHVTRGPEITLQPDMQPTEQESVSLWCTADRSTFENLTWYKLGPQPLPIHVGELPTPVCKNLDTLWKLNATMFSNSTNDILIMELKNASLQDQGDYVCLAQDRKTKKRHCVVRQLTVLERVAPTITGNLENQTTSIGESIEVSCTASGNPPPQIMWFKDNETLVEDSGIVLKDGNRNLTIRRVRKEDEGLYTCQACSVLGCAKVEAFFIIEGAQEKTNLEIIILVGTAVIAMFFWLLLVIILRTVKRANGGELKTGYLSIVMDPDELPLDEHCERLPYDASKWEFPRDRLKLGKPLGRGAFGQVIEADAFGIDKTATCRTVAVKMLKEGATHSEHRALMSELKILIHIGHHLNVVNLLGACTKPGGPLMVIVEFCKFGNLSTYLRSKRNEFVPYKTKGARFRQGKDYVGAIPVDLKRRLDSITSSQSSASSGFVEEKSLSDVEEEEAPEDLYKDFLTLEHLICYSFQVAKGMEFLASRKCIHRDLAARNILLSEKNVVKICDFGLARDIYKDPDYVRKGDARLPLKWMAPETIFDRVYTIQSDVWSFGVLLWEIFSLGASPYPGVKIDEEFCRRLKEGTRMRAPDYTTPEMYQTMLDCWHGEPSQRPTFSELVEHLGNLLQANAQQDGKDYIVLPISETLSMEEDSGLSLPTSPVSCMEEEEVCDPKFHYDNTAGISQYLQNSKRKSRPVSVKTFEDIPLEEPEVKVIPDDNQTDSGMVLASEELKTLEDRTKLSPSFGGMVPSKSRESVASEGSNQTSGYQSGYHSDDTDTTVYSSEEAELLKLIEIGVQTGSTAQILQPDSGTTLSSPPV

**Q.** With `CC(=O)c1nn(-c2ccc(Cl)cc2)/c(=N/N=C(\C)c2ccc(NC(=O)c3ccc(C)cc3)cc2)s1` [Compound 18f, N-(4-((E)-1-(((Z)-5-Acetyl-3-(4-chlorophenyl)-1,3,4-thiadiazol-2(3H)-ylidene) hydrazono)ethyl)phenyl)-4-methylbenzamide] as the compound, how does the IC50 [1] read?
**A.** 440 ± 65 nM

**Q.** What about the IC50 [2] of the same compound?
**A.** 180 ± 18 nM

**Q.** Which IC50 [1] does the source give for `CC(=O)c1nn(-c2ccc(Cl)cc2)/c(=N/N=C(\C)c2ccc(NC(=O)c3ccc(Cl)cc3)cc2)s1` [Compound 18d, N-(4-((E)-1-(((Z)-5-Acetyl-3-(4-chlorophenyl)-1,3,4-thiadiazol-2(3H)-ylidene) hydrazono)ethyl)phenyl)-4-chlorobenzamide] here?
**A.** 5000 ± 192 nM

**Q.** And the IC50 [2]?
**A.** 6170 ± 19 nM

**Q.** Which results are given for `CNC(=O)c1cc(Oc2ccc(NC(=O)Nc3ccc(Cl)c(C(F)(F)F)c3)cc2)ccn1` [Sorafenib, reference compound]?
**A.** IC50 [1]: 150 ± 13 nM; IC50 [2]: 140 ± 52 nM

**Q.** For `COc1ccc(-n2nc(C(C)=O)s/c2=N\N=C(/C)c2ccc(NC(=O)c3ccc(Cl)cc3)cc2)cc1` [Compound 18c, N-(4-((E)-1-(((Z)-5-Acetyl-3-(4-methoxyphenyl)-1,3,4-thiadiazol-2(3H)-ylidene) hydrazono)ethyl)phenyl)-4-chlorobenzamide], which IC50 [1] is on record?
**A.** 190 ± 14 nM

**Q.** What about the IC50 [2] of the same compound?
**A.** 160 ± 32 nM

**Q.** What does the source list for `CC(=O)c1nn(-c2ccc(Cl)cc2)/c(=N/N=C(\C)c2ccc(NC(=O)c3ccccc3)cc2)s1` [Compound 18b, N-(4-((E)-1-(((Z)-5-Acetyl-3-(4-chlorophenyl)-1,3,4-thiadiazol-2(3H)-ylidene) hydrazono)ethyl)phenyl) benzamide]?
**A.** IC50 [1]: 220 ± 98 nM; IC50 [2]: 200 ± 11 nM

**Q.** For `COc1ccc(-n2nc(C(C)=O)s/c2=N\N=C(/C)c2ccc(NC(=O)c3ccccc3)cc2)cc1` [Compound 18a, N-(4-((E)-1-(((Z)-5-Acetyl-3-(4-methoxyphenyl)-1,3,4-thiadiazol-2(3H)-ylidene) hydrazono)ethyl)phenyl) benzamide], which IC50 [1] is on record?
**A.** 160 ± 17 nM

**Q.** What about the IC50 [2] of the same compound?
**A.** 800 ± 12 nM

**Q.** Which IC50 ([3]; VEGFR-2 IC50, as printed in section 3.2.3) does the source give for `COc1ccc(-n2nc(C(C)=O)s/c2=N\N=C(/C)c2ccc(NC(C)=O)cc2)cc1` [Compound 14, N-(4-((E)-1-(((Z)-5-acetyl-3-(4-methoxyphenyl)-1,3,4-thiadiazol-2(3H)-ylidene)hydrazineylidene)ethyl)phenyl)acetamide] here?
**A.** 243 nM

**Q.** And the IC50 ([3]; VEGFR-2 IC50, as printed in the abstract)?
**A.** 103 nM

**Q.** And the “Cell cycle distribution (%) G0–G1” value [4]?
**A.** 68.43%

**Q.** What about the “Cell cycle distribution (%) G2/M” value [4] of the same compound?
**A.** 9.3%

**Q.** And the “Cell cycle distribution (%) S” value [4]?
**A.** 22.27%

**Q.** What about the “Increase of cell population at G0–G1 phase versus control” value [4] of the same compound?
**A.** 1.09 fold

**Q.** And the “Early apoptosis (%)” value [5]?
**A.** 16.53%

**Q.** And the “Late apoptosis (%)” value [5]?
**A.** 29.57%

**Q.** And the “Necrosis (%)” value [5]?
**A.** 5.95%

**Q.** And the “Necrosis percentage enhancement versus control” value [5]?
**A.** four-fold

**Q.** What about the “Total apoptosis (%)” value [5] of the same compound?
**A.** 52.05%

**Q.** And the “Total apoptosis enhancement versus control” value [5]?
**A.** 22 fold

**Q.** And the “Lowering of Bcl-2 level versus control” value [6]?
**A.** 6.2 fold

**Q.** And the “RT-PCR fold change, Bcl2” value ([6]; control = 1)?
**A.** 0.159 fold

**Q.** And the “Area difference (%)” value ([7]; MCF-7, after 48 h)?
**A.** 361.667%

**Q.** And the “RM (rate of migration)” value ([7]; MCF-7, after 48 h)?
**A.** 7.532 μm

**Q.** What about the “Wound area at 0 h” value ([7]; MCF-7 scratch assay) of the same compound?
**A.** 933.000 μm^2

**Q.** What about the “Wound area at 24 h” value ([7]; MCF-7 scratch assay) of the same compound?
**A.** 836.333 μm^2

**Q.** What about the “Wound area at 48 h” value ([7]; MCF-7 scratch assay) of the same compound?
**A.** 571.333 μm^2

**Q.** And the “Wound width at 0 h” value ([7]; MCF-7 scratch assay)?
**A.** 932.006 μm

**Q.** What about the “Wound width at 24 h” value ([7]; MCF-7 scratch assay) of the same compound?
**A.** 835.443 μm

**Q.** And the “Wound width at 48 h” value ([7]; MCF-7 scratch assay)?
**A.** 570.472 μm

**Q.** What about the “Selectivity index, HepG2” value [8] of the same compound?
**A.** ~1.28

**Q.** What about the IC50 [1] of the same compound?
**A.** 40 ± 9 nM

**Q.** And the IC50 [2]?
**A.** 180 ± 6 nM

**Q.** What about the IC50 [9] of the same compound?
**A.** 140 nM

**Q.** What does the source list for `COc1ccc(-n2nc(C(C)=O)s/c2=N\N=C(/C)c2ccc(NC(=O)c3ccc(C)cc3)cc2)cc1` [Compound 18e, N-(4-((E)-1-(((Z)-5-Acetyl-3-(4-methoxyphenyl)-1,3,4-thiadiazol-2(3H)-ylidene) hydrazono)ethyl)phenyl)-4-methylbenzamide]?
**A.** IC50 [1]: 190 ± 45 nM; IC50 [2]: 210 ± 45 nM
